Source: patent US7285564B2, “Substituted 4-amino-1-(pyridylmethyl)piperidine and related compounds” (Theravance, Inc., priority 2002, dated 2007)

Molecular target: T1, hM2 receptor (Homo sapiens, UniProt P08172)
T1 construct: expressed in transfected cells; membranes prepared
T1 sequence (P08172 1-466): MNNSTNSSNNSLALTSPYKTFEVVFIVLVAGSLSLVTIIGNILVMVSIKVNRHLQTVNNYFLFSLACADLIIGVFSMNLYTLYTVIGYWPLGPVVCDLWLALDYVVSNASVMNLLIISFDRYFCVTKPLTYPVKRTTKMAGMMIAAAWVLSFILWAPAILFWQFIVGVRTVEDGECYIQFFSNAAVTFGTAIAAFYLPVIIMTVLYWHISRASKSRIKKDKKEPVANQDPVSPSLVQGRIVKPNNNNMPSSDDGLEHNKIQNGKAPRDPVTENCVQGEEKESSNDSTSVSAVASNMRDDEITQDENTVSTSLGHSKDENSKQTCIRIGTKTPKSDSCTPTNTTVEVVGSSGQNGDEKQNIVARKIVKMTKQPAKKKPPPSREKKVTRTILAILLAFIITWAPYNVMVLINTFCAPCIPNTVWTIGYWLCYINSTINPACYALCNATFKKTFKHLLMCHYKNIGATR
Assay: Blockade of agonist-mediated GTPγ[35S] binding
Assay type: biochemical
Details: membranes of CHO-K1 cells expressing hM2; read-out: Ki for blockade of carbachol-mediated GTPγ[35S] binding
Protocol: In this assay, the functional potency of a test compound was determined by measuring the ability of the test compound to block carbachol-stimulated GTPγ[^35S] binding in CHO-K1 cells expressing the hM2 receptor.
CHO-K1 cells stably expressing the hM2 muscarinic receptor were grown in medium consisting of Hams F-12 media supplemented with 10% Fetal Bovine Serum and 500 μg/ml of Geneticin (G-418). Cells were incubated in a 5% CO2, humidified incubator at 37° C. Cells were grown to confluence and harvested with dPBS+2 mM EDTA and pelleted by centrifugation at 250×g for 10 minutes.
Cells from the centrifuged pellets were resuspended in homogenization buffer (10 mM HEPES, 10 mM EDTA, pH 7 at 4° C.). […]
To determine the ability of a test compound to inhibit carbachol-stimulated GTPγ[^35S] binding, the following was added to each well of 96 well plates: 25 μL of assay buffer with […] and GDP, 25 μL of diluted test compound (prepared as described above), and 25 μL CHO cell membranes expressing the hM2 receptor. […] After the pre-incubation period, 25 μL of carbachol at the final concentration of its EC90 value determined earlier in the day was added to each plate. […]
Test compound potency (IC50) was determined using iterative curve fitting (GraphPad Prism 3.0 software; single site competition curve). […]

- Ki: < 1 nM
SMILES: COc1ccncc1CN1CCC(N(CCCCCCCN2CC[C@@H](C(C(N)=O)(c3ccccc3)c3ccccc3)C2)C(C)C)CC1 [Example 1]
